From patent US6583147B1, “Pyrazolopyrimidinone derivatives for the treatment of impotence” (Dong A Pharm Co., Ltd., priority 1998, dated 2003)
Converted amounts (≈) assume the structure as drawn. Read-outs that look alike come from different tables or passages of the source.

Tests used:
rats = test: Penile erection test using rats; assay type: in vivo, rat; conditions: oral single dose 10 mg/kg in 0.5% methyl cellulose, observed for 2 hours
[1] = molecular target: T1, Phosphodiesterase-5 enzyme (PDE 5) (Homo sapiens, UniProt O76074); test: Test for phosphodiesterase-5 (PDE 5) activity; assay type: biochemical; conditions: PDE 5 fraction from human corpus cavernosal tissues
T1 construct: separated by HPLC (Mono Q anion exchange column) with concentration gradient of 0-500 mM NaCl to elute PDE isozymes; from tissue; host or cells: human corpus cavernosal tissue

[2] = molecular target: T2, Phosphodiesterase-3 enzyme (PDE 3) (Oryctolagus cuniculus, UniProt G1ST54); test: Test for phosphodiesterase-3 (PDE 3) activity; assay type: biochemical; conditions: PDE 3 fraction from platelets of a rabbit
T2 construct: The supernatant was separated by DEAE-cellulose column chromatography (Whatman DE52 bead); from tissue; host or cells: rabbit platelets
T2 sequence (G1ST54 1-1128): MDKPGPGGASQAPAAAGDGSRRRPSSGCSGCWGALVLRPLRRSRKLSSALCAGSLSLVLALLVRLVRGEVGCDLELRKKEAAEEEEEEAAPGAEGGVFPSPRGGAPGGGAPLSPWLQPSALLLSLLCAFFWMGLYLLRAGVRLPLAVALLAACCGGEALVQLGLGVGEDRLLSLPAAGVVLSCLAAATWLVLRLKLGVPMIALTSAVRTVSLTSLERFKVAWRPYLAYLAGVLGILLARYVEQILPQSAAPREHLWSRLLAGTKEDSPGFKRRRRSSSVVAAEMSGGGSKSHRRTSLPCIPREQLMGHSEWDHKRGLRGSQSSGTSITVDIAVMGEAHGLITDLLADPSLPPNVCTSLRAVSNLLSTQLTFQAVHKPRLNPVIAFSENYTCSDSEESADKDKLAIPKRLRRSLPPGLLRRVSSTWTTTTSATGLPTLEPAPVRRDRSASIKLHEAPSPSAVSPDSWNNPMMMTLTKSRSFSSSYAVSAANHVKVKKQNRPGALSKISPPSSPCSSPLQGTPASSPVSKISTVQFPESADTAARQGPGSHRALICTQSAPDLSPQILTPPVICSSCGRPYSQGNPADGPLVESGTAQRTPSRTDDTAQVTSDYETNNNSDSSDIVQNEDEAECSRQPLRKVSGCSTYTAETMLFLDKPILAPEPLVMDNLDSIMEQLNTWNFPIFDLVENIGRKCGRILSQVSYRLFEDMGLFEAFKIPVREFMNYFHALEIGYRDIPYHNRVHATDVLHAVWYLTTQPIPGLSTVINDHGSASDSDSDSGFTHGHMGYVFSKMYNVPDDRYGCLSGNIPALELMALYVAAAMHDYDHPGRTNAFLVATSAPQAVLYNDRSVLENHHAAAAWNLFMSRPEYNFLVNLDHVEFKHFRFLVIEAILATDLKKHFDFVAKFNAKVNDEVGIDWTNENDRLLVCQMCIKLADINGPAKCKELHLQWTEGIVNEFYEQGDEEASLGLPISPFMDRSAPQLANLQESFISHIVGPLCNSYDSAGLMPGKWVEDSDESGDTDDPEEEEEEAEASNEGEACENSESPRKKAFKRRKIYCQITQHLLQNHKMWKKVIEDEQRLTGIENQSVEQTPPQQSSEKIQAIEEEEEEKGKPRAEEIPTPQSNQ
Experimental: Phosphodiesterase-3 enzyme (PDE 3) was separated from platelets of a rabbit. About 60 ml of blood was collected from a puncture of the abdominal artery of a rabbit in heparinized syringes. Platelet-rich plasma was harvested by centrifugation for 5 min at 450×g and further centrifuged for 15 min at 1,200×g to precipitate the platelets. The platelets were resuspended in homogenizing buffer (50 mM Tris-HCl, 1 mM MgCl2, pH 7.4), homogenized at 4° C. and ultrasonicated (30 sec/ml). The homogenized solution was centrifuged (105,000×g) for 1 hr at 4° C. to obtain the supernatant in which PDE was dissolved. The supernatant was separated by DEAE-cellulose column chromatography (Whatman DE52 bead) by using eluent (50 mM Tris-HCl, 3.75mM2-mercaptoethanol, pH 6.0) with concentration gradient of 0-1 M sodium acetate to elute PDE isozymes. The PDE activity was measured on the each column fraction by the following process to separate PDE 3 fraction and the inhibition for PDE 3 of the compounds of formula 1 was measured by using the fraction.
To 1.5 ml tube containing 100 ul of reaction mixture (15 mM Tris-HCl, 5 mM MgCl2, 0.5 mg/ml BSA, pH 7.4) were added appropriate amount of PDE 3 fraction and PDE inhibitor and the solution was mixed well. After [^3H]-cAMP or [^3H]-cGMP (500 nM, 2 uCi/ml) was added, the mixture was reacted in incubator of 30° C. for about 1 hour and the reaction was quenched by putting the tube into boiling water for about 45 seconds to 2 min. The tube was chilled in ice bath for about 5 min. To this tube was added snake venom (1 mg/ml, 100 ul) or 5′-nucleotidase (0.1 unit/tube) and the mixture was reacted in incubator of 37° C. for 10 min and chilled in ice bath. 3 times volume of methanol to the resin was added to the anion exchange resin (Bio-Rad resin, AG1-X2, 200-400 mesh) which had been already washed with 0.5 N HCl, H2O, 0.5 N NaOH, H2O, 0.5 N HCl and H2O in order and adjusted to pH 5. Then 1 ml of the pretreated resin was added to the each tube with vortexing. The mixture was left at 4° C. for 15 min with occasional vortexing and centrifuged (10,000 rpm) for about 5 min to sediment the resin. The supernatant (700 ul) was transferred to a liquid scintillation vial, and mixed with 10 ml of scintillation cocktail. After stabilizing the mixture by leaving it overnight, the radioactivity of the tube was measured by β-counter.

[3] = Acute oral toxicity test in rats; conditions: SD, rat, in vivo, 1 g/kg; rats, oral single dose; read-out: lethal dose (LD50) of oral administration
[4] = Solubility in buffer solution in pH=2&5; assay type: physicochemical; conditions: 20 °C, thermodynamic from solid
Experimental: According to that defined in the Korea Pharmacopoeia, citrate-HCl buffer (pH 2) and citrate-NaOH buffer (pH 5) solutions were added to the powdered compounds of formula 1, respectively. After subsequent severe shaking for 30 sec every 5 min in […] for 30 min, the level of compounds in the filtrate was measured by high performance liquid chromatography.

[5] = Metabolism in rat liver (9,000xg supernatant fraction with NADPH); assay type: in vitro ADME; conditions: 10 ug/ml, 37° C., 1 hr, rat liver 9,000xg supernatant with NADPH generating solution
Experimental: In order to evaluate the extent of metabolism of the compounds of formula 1, the metabolism in rat liver was studied as below similar to the reported method (C. L. Litterist, E. G. Mimnaugh, R. I. Reagan and T. G. Gram., Drug. Metabol. Disposit., 1975, 3, 259-265). In short, the disappearance of compounds after incubation in 9, 000×g supernatant fraction of rat liver homogenate in the presence of NADPH (reduced nicotinamide adenine dinucleotide phosphate) was evaluated.
First, Sprague-Dawley rat (Korea Experiment Animals, SPF) liver was isolated after perfusion through portal vein with 0.1 M phosphate buffer of pH 7.0 using tissue homogenizer at 4° C. After centrifugation at 9,000×g for 20 min, the supernatants were collected.
The compound stock solution was spiked (10 ug/ml) into each of the eppendorf tubes containing 1 ml of the mixed solution composing 1 volume of supernatants and 2 volumes of generating solution. The generating solution contains 1 mM NADP, 10 mM glucose-6-phosphate, 50 mM nicotinamide and 5 MM MgCl2 in 0.1 M phosphate buffer of pH 7.0. After vortex-mixing, each test tube was incubated in a water bath kept at 37° C. After 1 hr, was added acetonitrile to the reaction mixture and centrifuged. 100 ul of aliquot of the supernatant was sampled from each test tube for measuring the remnants by high performance liquid chromatography.

[6] = citrate-HCl buffer, pH 2, aqueous buffer, citrate-HCl buffer (pH 2), read-out: solubility pH 2
[7] = citrate-NaOH buffer, pH 5, aqueous buffer, citrate-NaOH buffer (pH 5), read-out: solubility pH 5

## CCCOc1ccc(S(=O)(=O)Nc2ccncc2)cc1-c1nc2c(CCC)nn(C)c2c(=O)[nH]1 [Example 35, 5-[2-propyloxy-5-(4-pyridylamidosulfonyl)phenyl]-1-methyl-3-propyl-1,6-dihydro-7H-pyrazolo(4,3-d)pyrimidin-7-one]
rats
  PEI (penile erection index): 200.0 ± 0.0
  genital grooming (number of genital groomings): 2.0 ± 0.0
[1]
  IC50: 0.935 nM
[2]
  IC50: > 207000 nM
[3]
  LD50: > 1000 mg/kg
[4]; [6]
  solubility at 30 min: 11 µg/mL (≈ 22.8 µM)
[4]; [7]
  solubility at 30 min: 1 µg/mL (≈ 2.07 µM)
[5]
  remnants (%): 90.6%

## CCOc1ccc(S(=O)(=O)Nc2ccncc2)cc1-c1nc2c(CC(C)C)nn(C)c2c(=O)[nH]1 [Example 37, 5-[2-ethoxy-5-(4-pyridylamidosulfonyl)phenyl]-1-methyl-3-isobutyl-1,6-dihydro-7H-pyrazolo(4,3-d)pyrimidin-7-one]
rats
  PEI (penile erection index): 166.7 ± 57.7
  genital grooming (number of genital groomings): 1.3 ± 0.6
[1]
  IC50: 0.897 nM
[3]
  LD50: > 1000 mg/kg
[4]; [6]
  solubility at 30 min: 99 µg/mL (≈ 205 µM)
[4]; [7]
  solubility at 30 min: 7 µg/mL (≈ 14.5 µM)
[5]
  remnants (%): 94.8%

## CCCOc1ccc(S(=O)(=O)NCc2ccncc2)cc1-c1nc2c(CCC)nn(C)c2c(=O)[nH]1 [Example 44, 5-[2-propyloxy-5-(4-pyridylmethylamidosulfonyl)phenyl]-1-methyl-3-propyl-1,6-dihydro-7H-pyrazolo(4,3-d)pyrimidin-7-one]
rats
  PEI (penile erection index): 166.7 ± 115.5
  genital grooming (number of genital groomings): 1.3 ± 0.6
[1]
  IC50: 0.328 nM
[2]
  IC50: 12600 nM
[3]
  LD50: > 1000 mg/kg
[4]; [6]
  solubility at 30 min: 373 µg/mL (≈ 751 µM)
[4]; [7]
  solubility at 30 min: 1 µg/mL (≈ 2.01 µM)
[5]
  remnants (%): 49.8%

## CCCc1nn(C)c2c(=O)[nH]c(-c3cc(S(=O)(=O)NCc4cccnc4)ccc3OCC)nc12 [Example 47, 5-[2-ethoxy-5-(3-pyridylmethylamidosulfonyl)phenyl]-1-methyl-3-propyl-1,6-dihydro-7H-pyrazolo(4,3-d)pyrimidin-7-one]
rats
  PEI (penile erection index): 200.0 ± 100.0
  genital grooming (number of genital groomings): 3.0 ± 1.0
[1]
  IC50: 2.78 nM
[2]
  IC50: 20900 nM
[3]
  LD50: > 1000 mg/kg

## CCCOc1ccc(S(=O)(=O)NCc2ccccn2)cc1-c1nc2c(CCC)nn(C)c2c(=O)[nH]1 [Example 52, 5-[2-propyloxy-5-(2-pyridylmethylamidosulfonyl)phenyl]-1-methyl-3-propyl-1,6-dihydro-7H-pyrazolo(4,3-d)pyrimidin-7-one]
rats
  PEI (penile erection index): 233.3 ± 57.7
  genital grooming (number of genital groomings): 3.0 ± 1.0
[1]
  IC50: 9.89 nM
[2]
  IC50: > 201000 nM
[3]
  LD50: > 1000 mg/kg

## CCCOc1ccc(S(=O)(=O)NC2CCN(C)C2)cc1-c1nc2c(CCC)nn(C)c2c(=O)[nH]1 (centres unmarked) [Example 53, 5-[2-propyloxy-5-(1-methyl-3-pyrrolidinylamidosulfonyl)phenyl]-1-methyl-3-propyl-1,6-dihydro-7H-pyrazolo(4,3-d)pyrimidin-7-one]
rats
  PEI (penile erection index): 300.0 ± 200.0
  genital grooming (number of genital groomings): 2.7 ± 2.1
[1]
  IC50: 20.9 nM
[2]
  IC50: > 205000 nM
[3]
  LD50: > 1000 mg/kg

## CCOc1ccc(S(=O)(=O)NC2CCN(C)C2)cc1-c1nc2c(CC(C)C)nn(C)c2c(=O)[nH]1 (centres unmarked) [Example 54, 5-[2-ethoxy-5-(1-methyl-3-pyrrolidinylamidosulfonyl)phenyl]-1-methyl-3-isobutyl-1,6-dihydro-7H-pyrazolo(4,3-d)pyrimidin-7-one]
rats
  PEI (penile erection index): 233.3 ± 230.9
  genital grooming (number of genital groomings): 2.7 ± 2.9
[1]
  IC50: 39.1 nM
[2]
  IC50: > 205000 nM
[3]
  LD50: > 1000 mg/kg

## CCCOc1ccc(S(=O)(=O)NCC2CCN(CC)C2)cc1-c1nc2c(CCC)nn(C)c2c(=O)[nH]1 (centres unmarked) [Example 64, 5-[2-propyloxy-5-(1-ethyl-3-pyrrolidinylmethylamidosulfonyl)phenyl]-1-methyl-3-propyl-1,6-dihydro-7H-pyrazolo(4,3-d)pyrimidin-7-one]
rats
  PEI (penile erection index): 175.0 ± 95.7
  genital grooming (number of genital groomings): 2.8 ± 0.5
[1]
  IC50: 30.7 nM
[2]
  IC50: 134000 nM
[3]
  LD50: > 1000 mg/kg

## CCOc1ccc(S(=O)(=O)NCC2CCN(CC)C2)cc1-c1nc2c(CC(C)C)nn(C)c2c(=O)[nH]1 (centres unmarked) [Example 66, 5-[2-ethoxy-5-(1-ethyl-3-pyrrolidinylmethylamidosulfonyl)phenyl]-1-methyl-3-isobutyl-1,6-dihydro-7H-pyrazolo(4,3-d)pyrimidin-7-one]
rats
  PEI (penile erection index): 175.0 ± 95.7
  genital grooming (number of genital groomings): 2.8 ± 0.5
[1]
  IC50: 35.8 nM
[2]
  IC50: 90400 nM
[3]
  LD50: > 1000 mg/kg
